Measured values: patent publication US20170296682A1, “DERIVATIVES OF DIBENZOTHIOPHENE IMAGING OF alpha-7 NICOTINIC ACETYLCHOLINE RECEPTORS” (THE JOHNS HOPKINS UNIVERSITY, priority 2015, published 2017)
Values joined by “and” are separate entries in the source; they are usually repeats but may differ in a detail not shown here. Identical values can stand only once. Like-named read-outs stand apart in the source and are kept apart here.

Legend:
α7-nAChR [1] = target: T1, α7-nAChR (Rattus norvegicus, UniProt Q05941); assay: biochemical; assay type: binding
α7-nAChR [2] = target: T2, α7-nAChR (Mus musculus, UniProt P49582); conditions: in vivo; cited from earlier work
α7-nAChR [3] = target: T3, α7-nAChR (Homo sapiens, UniProt P36544); conditions: read-out: α7-nAChR, Ki, cited from earlier work
α3β2-nAChR = α3β2-nAChR (Rattus norvegicus, UniProt P04757+P12390); assay: Heteromeric nAChR binding assay, transfected HEK293 membranes, [3H]epibatidine
α2β4-nAChR = target: T4, α2β4-nAChR (Rattus norvegicus, UniProt P12389+P12392); assay: as above
T4 construct: expressed in transfected cells

α4β2-nAChR = α4β2-nAChR (Rattus norvegicus, UniProt P09483+P12390); assay: as above
α3β4-nAChR = target: T5, α3β4-nAChR (Rattus norvegicus, UniProt P04757+P12392); assay: as above
T5 construct: expressed in transfected cells

α4β4-nAChR = target: T6, α4β4-nAChR (Rattus norvegicus, UniProt P09483+P12392); assay: as above
T6 construct: expressed in transfected cells

α2β2-nAChR = α2β2-nAChR (Rattus norvegicus, UniProt P12389+P12390); assay: as above
α7-nAChR [4] = target: T2, α7-nAChR; conditions: in vivo
α7-nAChR [5] = target: T2, α7-nAChR; parameters: The brains were rapidly removed and dissected on ice; tissue Charles River Laboratories; host or cells: brain of live male CD-1 mice; species or system CD-1 mice; conditions: in vivo
α7-nAChR [6] = target: T1, α7-nAChR; conditions: read-out: KD of radiotracer, α7-nAChR; cited from earlier work
α7-nAChR [7] = target: T3, α7-nAChR; conditions: read-out: Ki α7-nAChR (literature); cited from earlier work
a7-nAChR = conditions: baboon
α7-nAChR [8] = target: T2, α7-nAChR; parameters: The brains were rapidly removed and dissected on ice; tissue Charles River Laboratories; host or cells: brain of live male CD-1 mice; species or system CD-1 mice; conditions: in vivo; remark: listed apart in the source
α7-nAChR [9] = target: T2, α7-nAChR; conditions: drugs 2 mg/kg sc, 10 min before radiotracer, 90 min
α7-nAChR [10] = target: T2, α7-nAChR; conditions: in vivo; remark: listed apart in the source

T2 sequence (P49582 23-502): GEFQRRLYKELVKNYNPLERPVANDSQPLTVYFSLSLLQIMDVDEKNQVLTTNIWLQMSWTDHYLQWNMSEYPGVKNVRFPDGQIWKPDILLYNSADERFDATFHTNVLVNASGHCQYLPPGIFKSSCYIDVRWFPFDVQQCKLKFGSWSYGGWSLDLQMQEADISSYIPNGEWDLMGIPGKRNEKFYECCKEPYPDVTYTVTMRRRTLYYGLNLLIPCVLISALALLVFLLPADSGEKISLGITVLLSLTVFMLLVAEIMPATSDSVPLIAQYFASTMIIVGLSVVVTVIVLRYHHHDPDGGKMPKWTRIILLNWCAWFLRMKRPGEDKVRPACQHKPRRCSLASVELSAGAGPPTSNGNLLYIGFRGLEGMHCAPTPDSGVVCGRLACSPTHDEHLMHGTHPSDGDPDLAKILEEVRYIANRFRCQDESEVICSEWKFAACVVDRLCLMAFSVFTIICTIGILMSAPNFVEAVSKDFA
T3 sequence (P36544 23-502): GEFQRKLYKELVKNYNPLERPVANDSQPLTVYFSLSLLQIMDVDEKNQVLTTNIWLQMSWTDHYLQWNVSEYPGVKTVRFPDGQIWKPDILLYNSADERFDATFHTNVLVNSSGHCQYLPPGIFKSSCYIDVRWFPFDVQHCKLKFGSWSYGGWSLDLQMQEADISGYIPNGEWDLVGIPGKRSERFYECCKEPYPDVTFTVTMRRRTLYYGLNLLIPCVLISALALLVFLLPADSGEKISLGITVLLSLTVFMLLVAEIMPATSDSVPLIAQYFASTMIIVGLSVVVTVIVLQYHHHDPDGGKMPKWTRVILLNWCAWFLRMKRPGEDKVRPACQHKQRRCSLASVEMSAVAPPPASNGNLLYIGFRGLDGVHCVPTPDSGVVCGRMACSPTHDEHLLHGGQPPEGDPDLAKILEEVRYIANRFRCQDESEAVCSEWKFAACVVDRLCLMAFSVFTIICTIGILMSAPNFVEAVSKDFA
T1 sequence (Q05941 23-502): as the sequence (P49582 23-502) above, with T402A counted along it
Chain of α4β2-nAChR (P09483 31-630): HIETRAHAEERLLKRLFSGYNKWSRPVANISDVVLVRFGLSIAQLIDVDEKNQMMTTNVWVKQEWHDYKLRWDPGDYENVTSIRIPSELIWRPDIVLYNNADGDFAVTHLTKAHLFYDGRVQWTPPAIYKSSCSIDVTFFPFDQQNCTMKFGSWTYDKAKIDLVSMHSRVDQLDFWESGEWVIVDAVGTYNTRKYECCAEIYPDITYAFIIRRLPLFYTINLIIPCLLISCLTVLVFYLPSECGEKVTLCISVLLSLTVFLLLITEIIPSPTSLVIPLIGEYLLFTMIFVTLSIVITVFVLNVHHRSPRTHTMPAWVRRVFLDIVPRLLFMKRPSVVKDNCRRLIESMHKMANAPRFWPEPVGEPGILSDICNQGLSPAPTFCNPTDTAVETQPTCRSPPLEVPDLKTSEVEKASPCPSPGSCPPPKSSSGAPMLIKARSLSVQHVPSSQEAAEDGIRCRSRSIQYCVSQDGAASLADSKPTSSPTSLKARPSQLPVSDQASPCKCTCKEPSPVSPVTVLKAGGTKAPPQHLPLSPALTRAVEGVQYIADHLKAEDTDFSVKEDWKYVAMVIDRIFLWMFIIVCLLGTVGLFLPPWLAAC
Chain of α4β2-nAChR (P12390 25-500): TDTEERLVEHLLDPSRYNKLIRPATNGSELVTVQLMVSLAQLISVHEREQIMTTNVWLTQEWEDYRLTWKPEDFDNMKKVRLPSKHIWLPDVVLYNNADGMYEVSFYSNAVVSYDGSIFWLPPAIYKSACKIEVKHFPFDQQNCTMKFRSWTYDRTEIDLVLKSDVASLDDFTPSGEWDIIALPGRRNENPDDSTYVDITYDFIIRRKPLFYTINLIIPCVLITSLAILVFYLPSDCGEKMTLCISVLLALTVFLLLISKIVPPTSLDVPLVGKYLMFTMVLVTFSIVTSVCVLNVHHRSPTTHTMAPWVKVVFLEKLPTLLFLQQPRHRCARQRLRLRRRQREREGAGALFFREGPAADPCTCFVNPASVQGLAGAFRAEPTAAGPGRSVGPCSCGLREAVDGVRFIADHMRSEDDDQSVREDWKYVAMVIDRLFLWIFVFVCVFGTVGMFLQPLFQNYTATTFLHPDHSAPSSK
T4 sequence (P12389 28-511): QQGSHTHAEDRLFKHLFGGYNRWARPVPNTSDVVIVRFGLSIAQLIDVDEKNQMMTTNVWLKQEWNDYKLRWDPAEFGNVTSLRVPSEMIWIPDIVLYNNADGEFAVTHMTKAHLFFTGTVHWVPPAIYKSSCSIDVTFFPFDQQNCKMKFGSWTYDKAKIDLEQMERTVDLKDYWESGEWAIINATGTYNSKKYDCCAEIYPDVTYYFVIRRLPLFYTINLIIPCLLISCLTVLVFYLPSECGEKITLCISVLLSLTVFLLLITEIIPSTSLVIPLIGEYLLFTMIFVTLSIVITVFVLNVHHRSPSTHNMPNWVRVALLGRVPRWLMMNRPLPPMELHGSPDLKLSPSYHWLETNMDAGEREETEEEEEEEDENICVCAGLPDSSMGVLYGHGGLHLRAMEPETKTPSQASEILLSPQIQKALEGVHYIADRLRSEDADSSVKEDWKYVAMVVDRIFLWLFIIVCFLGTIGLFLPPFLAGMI
T4 sequence (P12392 21-495): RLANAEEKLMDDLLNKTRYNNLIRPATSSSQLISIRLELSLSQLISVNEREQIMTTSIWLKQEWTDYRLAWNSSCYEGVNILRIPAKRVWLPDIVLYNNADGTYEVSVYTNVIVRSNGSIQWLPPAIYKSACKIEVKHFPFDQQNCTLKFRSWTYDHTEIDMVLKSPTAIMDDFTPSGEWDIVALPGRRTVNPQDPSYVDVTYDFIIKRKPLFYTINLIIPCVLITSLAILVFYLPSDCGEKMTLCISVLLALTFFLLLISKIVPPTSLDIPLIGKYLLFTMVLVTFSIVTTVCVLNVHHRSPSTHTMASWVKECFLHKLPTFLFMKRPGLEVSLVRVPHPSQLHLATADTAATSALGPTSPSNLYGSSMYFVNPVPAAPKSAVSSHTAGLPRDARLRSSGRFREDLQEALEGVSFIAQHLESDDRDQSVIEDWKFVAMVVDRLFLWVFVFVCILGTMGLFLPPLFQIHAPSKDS
Chain of α2β2-nAChR (P12389 28-511): as the sequence (P12389 28-511) above
Chain of α2β2-nAChR (P12390 25-500): as the sequence (P12390 25-500) above
Chain of α3β2-nAChR (P04757 26-499): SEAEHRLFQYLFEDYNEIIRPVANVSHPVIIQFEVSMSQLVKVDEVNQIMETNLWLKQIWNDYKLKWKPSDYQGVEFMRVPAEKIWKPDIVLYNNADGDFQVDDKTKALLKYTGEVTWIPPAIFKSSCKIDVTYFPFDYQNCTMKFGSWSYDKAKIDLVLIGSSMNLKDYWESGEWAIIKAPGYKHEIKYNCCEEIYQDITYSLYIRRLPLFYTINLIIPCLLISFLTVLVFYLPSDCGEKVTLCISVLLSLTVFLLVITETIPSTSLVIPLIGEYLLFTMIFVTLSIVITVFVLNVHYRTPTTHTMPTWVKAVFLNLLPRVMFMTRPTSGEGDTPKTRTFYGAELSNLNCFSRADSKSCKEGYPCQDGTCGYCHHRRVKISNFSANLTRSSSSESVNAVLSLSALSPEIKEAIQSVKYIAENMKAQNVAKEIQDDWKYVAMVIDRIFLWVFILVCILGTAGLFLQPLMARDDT
Chain of α3β2-nAChR (P12390 25-500): as the sequence (P12390 25-500) above
T5 sequence (P04757 26-499): as the sequence (P04757 26-499) above
T5 sequence (P12392 21-495): as the sequence (P12392 21-495) above
T6 sequence (P09483 31-630): as the sequence (P09483 31-630) above
T6 sequence (P12392 21-495): as the sequence (P12392 21-495) above

Molecule: O=S1(=O)c2cc(F)ccc2-c2ccc(N3CCN4CCC3CC4)cc21 [Compound 7b, 4-(7-Fluorodibenzo[b,d]thiophen-3-yl)-1,4-diazabicyclo-[3.2.2]nonane 5,5-Dioxide]
- Ki (α7-nAChR [1]; read-out: Ki α7-nAChR): 1.02 nM and 1.37 nM

Molecule: [11CH3]N1CC2CN(c3ccc(-c4ccc5[nH]ccc5c4)nc3)CC21 (stereo not shown) [5-(5-(6-[(11)C]methyl-3,6-diazabicyclo[3.2.0]heptan-3-yl)pyridin-2-yl)-1H-indole]
- BPND in cortex, Mice (α7-nAChR [2]): 1.9

Molecule: [18F]c1ccccc1-c1cnc2c(c1)CC1(CN3CCC1CC3)O2 (stereo not shown)
- Ki (α7-nAChR [3]): 0.2 nM
- BPND in cortex, Mice (α7-nAChR [2]): 0.8

Molecule: O=S1(=O)c2ccccc2-c2ccc(N3CCN4CCC3CC4)c(F)c21 [Compound 7d, 3-(1,4-Diazabicyclo[3.2.2]nonan-4-yl)-4-fluorodibenzo[b,d]-thiophene 5,5-Dioxide]
- Ki (α3β2-nAChR): 678 nM
- Ki (α2β4-nAChR): 838 nM
- Ki (α4β2-nAChR): 141 nM
- selectivity α7/α4β2 (α4β2-nAChR): 66
- Ki (α3β4-nAChR): 3000 nM
- Ki (α4β4-nAChR): 1000 nM
- Ki (α7-nAChR [1]; read-out: Ki α7-nAChR): 1.83 nM and 2.45 nM
- Ki (α2β2-nAChR): 292 nM

Molecule: [11CH3]N1CC2CN(c3ccc4c(c3)C(=O)C3C=CC=CC3O4)CC2C1 (stereo not shown)
- Ki (α7-nAChR [3]; previously published values, varied assay conditions): 11 nM

Molecule: O=S1(=O)c2cc(N3CCN4CCC3CC4)ccc2-c2cccc(I)c21 [Compound 14, 3-(1,4-Diazabicyclo[3.2.2]nonan-4-yl)-6-iododibenzo[b,d]-thiophene 5,5-Dioxide]
- Ki (α7-nAChR [1]; read-out: Ki α7-nAChR): 0.93 nM

Molecule: O=S1(=O)c2ccc([18F])cc2-c2ccc(N3CCN4CCC3CC4)cc21 [[^18F]7c, 4-(8-[^18F]fluorodibenzo[b,d]thiophen-3-yl)-1,4-diazabicyclo[3.2.2]nonane 5,5-dioxide]
- baseline-to-blockade ratio (α7-nAChR [4]): 5
- specific binding value (α7-nAChR [4]): 80%
- Approximate BPND, Coll (α7-nAChR [5]): 2.0 ± 0.5
- Approximate BPND, Ctx (α7-nAChR [5]): 2.0 ± 0.3
- Approximate BPND, Hipp (α7-nAChR [5]): 3.1 ± 0.7
- ratios of tissues to cerebellum (α7-nAChR [5]; iv): 4.5
- Ki (α7-nAChR [1]; Ki α7-nAChR (text)): 1.3 nM

Molecule: [11CH3]c1ccc(OC(=O)N2CCN3CCC2CC3)cc1
- BPND in cortex, Mice (α7-nAChR [2]): ~0.6

Molecule: [^125I]α-bungarotoxin
- Kd (α7-nAChR [6]): 0.7 nM

Molecule: O=C(Oc1ccc(Br)cc1)N1CCN2CCC1CC2 [Compound 1, reference compound]
- Ki (α7-nAChR [7]): 22 nM
- Mean occupancy of a7-nAChRs (a7-nAChR; dose of 0.5 mg/kg iv, individual VND values): 38%
- Mean occupancy of a7-nAChRs (a7-nAChR; dose of 0.5 mg/kg iv, mean VND value of 2 doses): 32.9%
- Mean occupancy of a7-nAChRs (a7-nAChR; dose of 5 mg/kg iv, individual VND values): 80.5%
- Mean occupancy of a7-nAChRs (a7-nAChR; dose of 5 mg/kg iv, mean VND value of 2 doses): 94.1%
- blockade of [18F]7a accumulation in mouse brain (α7-nAChR [8]): dose dependent blockade in all regions studied
- effect on accumulation of [18F]7a in mouse brain (α7-nAChR [9]): reduced accumulation of radioactivity

Molecule: O=c1cccc2n1C[C@@H]1CNC[C@H]2C1 [cytisine]
- blockade of [18F]7a accumulation in mouse brain (α7-nAChR [10]): insignificant reduction of radioactivity accumulation in all regions studied

Molecule: O=[11C](Nc1ccc(Br)cc1)OC1CN2CCC1CC2 (stereo not shown)
- BPND in cortex, Mice (α7-nAChR [2]): ~0.3

Molecule: O=[N+]([O-])c1ccc2c(c1)-c1ccc(N3CCN4CCC3CC4)cc1S2(=O)=O [Compound 11, 7-(1,4-Diazabicyclo[3.2.2]nonan-4-yl)-2-nitrodibenzo[b,d]-thiophene 5,5-Dioxide]
- Ki (α7-nAChR [1]; read-out: Ki α7-nAChR): 3.41 nM and 6.21 nM

Molecule: Cc1nccn1CC1CCc2c(c3ccccc3n2C)C1=O (stereo not shown) [ondansetron]
- effect on accumulation of [18F]7a in mouse brain (α7-nAChR [9]): absence of blockade
